Some targets named below: HLA-DR DRB1*0101 (DR1) (Homo sapiens, UniProt P01903+P01911, A100R/D57E/F55L/F60I/F76Y/I96L/L162R/M171V/P40L/Q125E/R42F/V115G/Y59C); HLA-DR DRB1*0901 (DR9) (Homo sapiens, UniProt P01903+P01911, A100R/A103E/D57H/D86V/F55Y/F60I/F76Y/I96F/K127E/L162R/M171V/P40D/Q125H/Q99R/R33Q/R42F/S133A/S66N/T210M/V115G/W38K/Y107V/Y59G/Y89S); HLA-DR DRB1*0301 (DR3) (Homo sapiens, UniProt P01903+P01911, A100K/A102G/A103R/A169T/F55Y/I96L/K41T/L162R/M171V/P40S/Q125H/Q178H/Q39Y/R42S/S66N/T106N/T262R/W38E/Y61H); HLA-DR DRB1*0401 (DR4) (Homo sapiens, UniProt P01903+P01911, A100K/A169T/F76Y/I96L/K127E/L162R/M171V/N62H/P40V/Q125Y/R42H/S133A/S149N/S66Y/V115G/V209L/W38E); HLA-DR DRB1*0701 (DR7) (Homo sapiens, UniProt P01903+P01911, A100R/A102G/A103Q/D57E/D86V/E43K/F76Y/K127E/L162R/M171V/P40G/Q125H/Q99D/R33Q/R42Y/R54Q/S133A/S66F/T210M/V115G/Y107V/Y59L/Y89S).

Test in all cases: biochemical
Holding throughout (format): binding

The next test deals with HLA-DR DRB1*1302 (DR13) (Homo sapiens, UniProt P01903+P01911, A100E/A169T/K41T/L162R/M171V/P40S/Q125H/Q178H/Q39Y/Q99D/R42S/S66N/T262R/V115G/W38E/Y61H). The following applies: DRBI *1302.
The next test concerns the target HLA-DR DRB4*0101 (DR53) (Homo sapiens, UniProt P01903+P13762, G164S). To be noted: DRB4 *0101.
Another test concerns the target HLA-DR DRB5*0101 (DR51) (Homo sapiens, UniProt P01903+Q30154). The following applies: DRB5 *0101.
In another test the target is HLA-DR DRB1*1101 (DR11) (Homo sapiens, UniProt P01903+P01911, A100R/A169T/A87E/I96F/K41T/L162R/M171V/P40S/Q125H/Q178H/Q39Y/Q99D/R42S/S66Y/T262R/V115G/W38E). The following applies: DRB1 *1101.
For another test, the target named is HLA-DR DRB1*1501 (DR15) (Homo sapiens, UniProt P01903+P01911). The following applies: DRBI *1501.

Where two headings read alike, the source gives them in different places. No end group written: not given here.

HLA-DR DRB1*0301 (DR3), sequence (P01903 26-254 limits assumed, other chains not shown): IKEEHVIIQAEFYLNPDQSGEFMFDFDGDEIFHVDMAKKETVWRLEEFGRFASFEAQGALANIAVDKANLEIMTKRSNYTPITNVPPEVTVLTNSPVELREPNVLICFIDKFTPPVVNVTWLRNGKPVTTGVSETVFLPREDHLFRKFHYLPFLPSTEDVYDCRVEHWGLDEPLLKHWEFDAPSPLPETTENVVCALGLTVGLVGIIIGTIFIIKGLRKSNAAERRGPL
HLA-DR DRB1*1302 (DR13), sequence (P01903 26-254 limits assumed, other chains not shown): as above
HLA-DR DRB1*1101 (DR11), sequence (P01903 26-254 limits assumed, other chains not shown): as above

Take KKCLNEILIRCHCQ: the IC50 stood at 9360 nM on HLA-DR DRB1*0101 (DR1) (read-out: DRB1 *0101) and 4000 nM at HLA-DR DRB1*0901 (DR9) (read-out: DRB1 *0901).

YNFACTELKLVYRDD: the IC50 at HLA-DR DRB1*1302 (DR13) was found to be 10200 nM; at HLA-DR DRB1*0101 (DR1) (DRB1 *0101), 7520 nM; against HLA-DR DRB1*0301 (DR3) it was 346 nM; against HLA-DR DRB4*0101 (DR53), 12900 nM; on HLA-DR DRB1*0401 (DR4) (DRB1 *0401), 1980 nM; at HLA-DR DRB1*0701 (DR7) (DRB1 *0701) it was 2870 nM.

Take TLRLCVQSTHVDIRT: the IC50 at HLA-DR DRB1*1302 (DR13) is 932 nM; against HLA-DR DRB1*0101 (DR1) (DRB1 *0101), 1520 nM; against HLA-DR DRB5*0101 (DR51), more than 22900 nM; against HLA-DR DRB4*0101 (DR53), 243 nM; at HLA-DR DRB1*0401 (DR4) (DRB1 *0401), 12000 nM; against HLA-DR DRB1*0701 (DR7) (DRB1 *0701), 3260 nM. Besides, the IC50 against HLA-DR DRB1*0901 (DR9) (DRB1 *0901) turned out to be 6370 nM; on HLA-DR DRB1*1101 (DR11), 17600 nM.

For the compound LGFLQRSSNTQTQK, the results for the IC50 at HLA-DR DRB1*0401 (DR4) (read-out: DRB1 *0401), on HLA-DR DRB1*0701 (DR7) (read-out: DRB1 *0701) and on HLA-DR DRB1*0901 (DR9) (read-out: DRB1 *0901) were 18 nM, 420 nM and 1340 nM, respectively.

With `CC(C)C[C@H](NC(=O)[C@H](CCC(N)=O)NC(=O)[C@H](CCC(N)=O)NC(=O)[C@@H](N)Cc1ccccc1)C(=O)N[C@@H](Cc1ccccc1)C(=O)N[C@@H](CC(C)C)C(=O)N[C@@H](CC(N)=O)C(=O)N[C@H](C(=O)N[C@@H](CC(C)C)C(=O)N[C@@H](CO)C(=O)N[C@@H](Cc1ccccc1)C(=O)N[C@H](C(=O)N[C@@H](CS)C(=O)N1CCC[C@H]1C(=O)N[C@@H](Cc1c[nH]c2ccccc12)C(=O)O)C(C)C)[C@@H](C)O`, the IC50 against HLA-DR DRB1*1302 (DR13) was determined as 9.3 nM; against HLA-DR DRB1*1501 (DR15) it was 24800 nM; on HLA-DR DRB1*0901 (DR9) (DRB1 *0901), 2060 nM.

For the compound QLQQFQKEDAAVTLY, the IC50 on HLA-DR DRB1*0101 (DR1) (read-out: DRB1 *0101) was found to be 85 nM; on HLA-DR DRB1*0701 (DR7) (read-out: DRB1 *0701) it was 500 nM; at HLA-DR DRB1*0901 (DR9) (read-out: DRB1 *0901) it was 55400 nM.

Consider YKSAHKGFKGVDAQGTLSKI, for which the IC50 at HLA-DR DRB1*0101 (DR1) (DRB1 *0101) is 70 nM; at HLA-DR DRB5*0101 (DR51), 1330 nM; on HLA-DR DRB1*0301 (DR3), more than 900000 nM; against HLA-DR DRB1*0701 (DR7) (DRB1 *0701), 108 nM; at HLA-DR DRB1*1101 (DR11), 2000 nM.

For the compound LRTIQQLLMGTVNIV, the IC50 came out at 6.4 nM against HLA-DR DRB1*1302 (DR13); 13 nM against HLA-DR DRB1*0101 (DR1) (DRB1 *0101); 32100 nM at HLA-DR DRB5*0101 (DR51); 23200 nM on HLA-DR DRB1*0301 (DR3); 15 nM at HLA-DR DRB4*0101 (DR53); 108 nM on HLA-DR DRB1*0401 (DR4) (DRB1 *0401). Also, the IC50 came out at 265 nM on HLA-DR DRB1*1501 (DR15) and 513 nM at HLA-DR DRB1*0701 (DR7) (DRB1 *0701).

For the compound RTVYRDNNPYGVCIM, the IC50 was 524 nM at HLA-DR DRB1*0101 (DR1) (read-out: DRB1 *0101), 20 nM on HLA-DR DRB1*0401 (DR4) (read-out: DRB1 *0401) and 24100 nM at HLA-DR DRB1*0901 (DR9) (read-out: DRB1 *0901).

As to DIRILQELLMGSFGI, the IC50 against HLA-DR DRB1*1302 (DR13) is 5800 nM; against HLA-DR DRB1*0101 (DR1) (DRB1 *0101), 88 nM; against HLA-DR DRB5*0101 (DR51) it was more than 55100 nM; at HLA-DR DRB1*0301 (DR3) it was 3250 nM; at HLA-DR DRB4*0101 (DR53), 16 nM; at HLA-DR DRB1*1501 (DR15), 1620 nM. The IC50 was 1590 nM on HLA-DR DRB1*0701 (DR7) (DRB1 *0701) and 19000 nM against HLA-DR DRB1*1101 (DR11).

As for DHRQLQLSISSCLQQLSLLM, the IC50 came out at 69 nM against HLA-DR DRB1*1302 (DR13); 1360 nM at HLA-DR DRB1*0101 (DR1) (DRB1 *0101); 63800 nM at HLA-DR DRB5*0101 (DR51); 42700 nM against HLA-DR DRB1*0301 (DR3); 532 nM against HLA-DR DRB4*0101 (DR53); 67 nM against HLA-DR DRB1*1501 (DR15). The IC50 against HLA-DR DRB1*0701 (DR7) (DRB1 *0701) was 736 nM; on HLA-DR DRB1*1101 (DR11), more than 98500 nM.

For the compound SEVYDFAFADLTVVY, the IC50 is more than 13100 nM on HLA-DR DRB1*1302 (DR13); 31 nM at HLA-DR DRB1*0101 (DR1) (DRB1 *0101); 11800 nM against HLA-DR DRB5*0101 (DR51); 3000 nM on HLA-DR DRB1*0301 (DR3); 260 nM at HLA-DR DRB1*0401 (DR4) (DRB1 *0401); 955 nM against HLA-DR DRB1*1501 (DR15). The IC50 at HLA-DR DRB1*0701 (DR7) (DRB1 *0701) is 1850 nM; against HLA-DR DRB1*1101 (DR11), more than 18000 nM.

In the case of DRTLMSAMTNLAALE, the IC50 at HLA-DR DRB1*0101 (DR1) (read-out: DRB1 *0101) worked out at 97 nM; at HLA-DR DRB1*0301 (DR3) (read-out: DRB1 *0301), 64300 nM; at HLA-DR DRB1*0401 (DR4) (read-out: DRB1 *0401) it was 13 nM; on HLA-DR DRB1*0701 (DR7) (read-out: DRB1 *0701), 383 nM.

For the compound TCCYTCGTTVRLCIN, the IC50 at HLA-DR DRB1*0301 (DR3) (read-out: DRB1 *0301) turned out to be 19900 nM; on HLA-DR DRB1*0401 (DR4) (read-out: DRB1 *0401) it was 719 nM; at HLA-DR DRB1*0701 (DR7) (read-out: DRB1 *0701), 63 nM.

Take LEDLLMGTLGIVCP: the IC50 at HLA-DR DRB1*0901 (DR9) (read-out: DRB1 *0901) came to 1990 nM.

Turning to YSYFPSIR, the IC50 against HLA-DR DRB1*0101 (DR1) (DRB1 *0101) was not below 50000 nM; against HLA-DR DRB5*0101 (DR51), more than 200000 nM; against HLA-DR DRB1*0301 (DR3) it was more than 900000 nM; against HLA-DR DRB1*0701 (DR7) (DRB1 *0701), 7220 nM; against HLA-DR DRB1*1101 (DR11), 20000 nM.

With VRTLQQLLMQTCTIV, the IC50 on HLA-DR DRB1*0101 (DR1) (read-out: DRB1 *0101) was determined as 36 nM; on HLA-DR DRB1*0401 (DR4) (read-out: DRB1 *0401) it was 322 nM; on HLA-DR DRB1*0701 (DR7) (read-out: DRB1 *0701), 1820 nM; at HLA-DR DRB1*0901 (DR9) (read-out: DRB1 *0901) it was 496 nM.

KSNFLNCYVSGFHPSD: the results for the IC50 at HLA-DR DRB1*0101 (DR1) (DRB1 *0101), on HLA-DR DRB1*0301 (DR3) and against HLA-DR DRB1*1101 (DR11) were 2500 nM, more than 900000 nM and 5000 nM, respectively.

These data come from US20060079453A1, “Hla binding peptides and their uses” (priority 2002, published 2006).
